Where two headings read alike, the source gives them in different places.
Columns and labels:
[1] = system: isolated guinea pig ileum; test: Agonist action on isolated guinea pig ileum; conditions: negative logarithm of the dose which produces 50% of maximum effect
Procedure: (§1) The interaction of the compounds with different receptors was assessed on isolated guinea pig ileum according to the following method.
(§2) Guinea pig ileum segments measuring 2.5-3 cm were washed and immediately suspended in a bath containing 10 ml of Tyrode's solution at 37° C. aerated with a mixture of oxygen (95%) and carbon dioxide (5%). After a stabilization period of at least 30 minutes, the contractions were recorded, maintaining the preparation under constant tension of 1 g using a gauge connected to a polygraph. The agonist action was assessed by leaving the compound in contact with the isolated tissue for a period necessary for expressing the maximal contraction; the preparation was then washed with Tyrode's solution. The next dose was added to the bath only after the preparation had returned to its base line. As a reference product, arecoline was employed. The antagonist action was assessed on contractions induced by acetyl choline (1×10^-6 M), histamine (1×10^-5 M) and barium chloride (2×10^-4 M). Atropine, diphenhydramine and papaverine were emplohyed as reference products. The contact time before adding the agonist was one minute.
(§3) For each compound, the dose-response curves are obtained with 4 to 6 different concentrations and 3 to 5 independent tests. The agonist activity is expressed by pD2 (negative logarithm of the dose which produces 50% of maximum effect). The antagonist activity is expressed by IC50 (concentration inhibiting 50% of the maximal response).

[2] = system: isolated guinea pig ileum, contractions induced by acetyl choline; test: Antagonist action on contractions induced by acetyl choline, isolated guinea pig ileum; conditions: acetyl choline 1×10^-6 M; contact time one minute; 37° C.; read-out: Antagonist to different agents (IC50), ACh
Procedure: as §1, §2, §3

[3] = system: cholinomimetic effects induced by carbachol; test: In vivo anticholinergic action: inhibition of cholinomimetic effects induced by carbachol in mice; set-up: species or system CD1 male mice; conditions: Mus musculus, ip; for ED (1 degree C): rectal temperature, read-out: Body temperature: dose increasing by 1° C. the hypothermic effect induced by the cholinergic agent
Procedure: The anticholinergic activity of the compounds was determined by assessing the capacity to inhibit the cholinomimetic effects induced by carbachol. Atropine sulphate was employed as a reference product.
CD1 male mice weighing 25 to 30 g were used. They were distributed in groups of 6 animals and treated intraperitoneally with scalar doses of the products or 0.25% Methocel for the controls. 12 animals were used for each dose. 30 minutes after administration of the compounds, the mice were injected subcutaneously with 1 mg/kg of carbachol dissolved in physiological saline.
Each animal was examined 30 minutes after the injection of carbachol to assess the presence of diarrhoea, salivation and eye watering; in addition, the body temperature was measured by means of a thermocouple inserted 1.5 cm into the rectum.
For each compound, we have determined and recorded in the following table the dose capable of inhibiting the appearance of the carbachol-induced cholinometric symptoms in 50% of the animals, and of increasing by 1° C. the hypothermic effect induced by the cholinergic agent.

[4] = system: isolated guinea pig ileum, contractions induced by barium chloride; test: Antagonist action on contractions induced by barium chloride, isolated guinea pig ileum; conditions: barium chloride 2×10^-4 M; contact time one minute; 37° C.; read-out: Antagonist to different agents (IC50), BaCl2
Procedure: as §1, §2, §3

dopamine receptors = test: Binding to other brain receptors: dopamine; conditions: negligible affinity
Excerpt: (§4) 1) Binding to different brain receptors.

Muscarinic receptor 1 = target: T1, Muscarinic receptor 1 (Rattus norvegicus, UniProt P08482); test: Binding to muscarinic receptor 1 ([^3 H]pirenzepine), rat cortex; conditions: for IC50: 0.25 nM [^3 H]pirenzepine, 60 minutes at 25° C., pH 7.4, rat cortex, read-out: Affinity for M1 muscarinic receptors, [^3 H]pirenzepine, IC50; for affinity for the muscarinic receptor (in words): summary of Table 1
T1 construct: cortices removed from the brains of male rats; from tissue; host or cells: rat brain cortex homogenate
T1 sequence (P08482 1-460): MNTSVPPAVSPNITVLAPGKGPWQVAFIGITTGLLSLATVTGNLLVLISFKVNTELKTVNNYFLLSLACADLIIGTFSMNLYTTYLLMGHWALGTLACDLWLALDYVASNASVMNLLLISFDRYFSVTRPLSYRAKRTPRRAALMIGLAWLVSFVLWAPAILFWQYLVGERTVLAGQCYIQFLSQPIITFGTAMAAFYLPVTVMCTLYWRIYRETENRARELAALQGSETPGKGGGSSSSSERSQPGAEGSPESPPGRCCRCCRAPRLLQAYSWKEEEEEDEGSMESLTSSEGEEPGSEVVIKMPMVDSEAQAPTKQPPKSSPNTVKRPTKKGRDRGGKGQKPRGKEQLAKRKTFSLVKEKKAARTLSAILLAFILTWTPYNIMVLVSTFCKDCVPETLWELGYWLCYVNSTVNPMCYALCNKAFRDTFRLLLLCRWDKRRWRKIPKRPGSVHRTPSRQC
Procedure: as §4
Preparation of this is carried out from cortices removed from the brains of male rats weighing 150 to 200 g (Iffa Credo), ground in a Polytron in a 10 mM Na/K buffer pH 7.4. After incubation (0.5 ml aliquots of homogenate) for 60 minutes at 25° C. in the presence of 0.25 nM [^3 H]pirenzepine, either alone, or with the test product, or with an excess of 10^-5 M pirenzepine (to determine the non-specifically bound radioactivity), the incubates are cooled and filtered.
The filtration is performed on Whatman GF/C filters prewashed in a 0.05% strength solution of polyethylenimine. The filters are rinsed with 3×5 ml of 10 mM Na/K phosphate buffer pH 7.4 and the measurements are then performed by liquid scintillation.
(§5) The results are expressed as an IC50 (concentration needed to inhibit by 50% the specifically bound radioactivity).

Muscarinic receptor 2 = test: Binding to muscarinic receptor 2 ([^3 H]quinuclidinyl benzylate), rat brain; conditions: 0.3 nM [^3 H]quinuclidinyl benzylate, 60 minutes at 25° C., pH 7.5, rat brain; read-out: Affinity for M2 muscarinic receptors, [^3 H]quinuclidinyl benzylate, IC50
Procedure: as §4
The preparation is performed from brains of male rats weighing 150 to 200 g (Iffa Credo).
The brains are ground (Teflon-glass) in 0.32M sucrose solution. The homogenate is centrifuged for 10 minutes at 1,000 g (0°-4° C.)
The supernatant obtained is collected and centrifuged at 30,000 g for 15 minutes (0°-4° C.).
The regulus is resuspended in 50 mM Tris buffer pH 7.5 and the new homogenate is centrifuged again at 30,000 g for 15 minutes (0°-4° C.).
After removal of the supernatant, the regulus may be used immediately or stored for up to 1 month at -30° C.
For an experiment, the regulus are first thawed, if necessary, at room temperature and resuspended using a Dounce in 50 mM Tris buffer pH 7.5. 2 ml aliquots are incubated for 60 minutes at 25° C. in the presence of 0.3 nM [^3 H]quinuclidinyl benzylate, either alone, or with the test product, or with 10^-5 M benzatropine to determine the non-specifically bound radioactivity.
At the end of the incubation period, the incubate tubes are cooled to 4° C. and filtered rapidly on Whatman GF/C filters. The filters are rinsed with 3×5 ml of […] Tris buffer pH 7.5 and the measurements are then performed by liquid scintillation (Henry I. Yamamura, Solomon H. Snyder, Proc. Nat. Acad. Sc. (1974) 71, No. 5, 1725-1729).
as §5

adrenoreceptors beta1 = target: T2, adrenoreceptors beta1 (Homo sapiens, UniProt P08588); test: Binding to other brain receptors: adrenoreceptor beta1; conditions: negligible affinity
T2 construct: from tissue
T2 sequence (P08588 whole entry): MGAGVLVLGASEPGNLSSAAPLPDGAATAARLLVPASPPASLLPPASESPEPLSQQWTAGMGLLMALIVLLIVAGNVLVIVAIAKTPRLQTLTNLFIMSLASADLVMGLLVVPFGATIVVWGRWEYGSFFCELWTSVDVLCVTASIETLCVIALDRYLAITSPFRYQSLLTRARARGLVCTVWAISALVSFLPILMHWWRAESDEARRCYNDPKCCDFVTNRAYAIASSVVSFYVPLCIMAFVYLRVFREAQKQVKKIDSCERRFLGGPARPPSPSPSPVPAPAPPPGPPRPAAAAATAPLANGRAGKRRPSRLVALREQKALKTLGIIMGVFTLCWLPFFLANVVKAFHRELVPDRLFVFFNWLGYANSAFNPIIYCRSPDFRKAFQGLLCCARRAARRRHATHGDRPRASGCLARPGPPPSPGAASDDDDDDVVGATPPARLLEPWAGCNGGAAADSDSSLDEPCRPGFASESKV
Excerpt: as §4

histamine receptors = test: Binding to other brain receptors: histamine; conditions: negligible affinity
Excerpt: as §4

opiate receptors mu = target: T3, opiate receptors mu (Homo sapiens, UniProt P35372); test: Binding to other brain receptors: opiate mu; conditions: negligible affinity
T3 construct: from tissue
T3 sequence (P35372 whole entry): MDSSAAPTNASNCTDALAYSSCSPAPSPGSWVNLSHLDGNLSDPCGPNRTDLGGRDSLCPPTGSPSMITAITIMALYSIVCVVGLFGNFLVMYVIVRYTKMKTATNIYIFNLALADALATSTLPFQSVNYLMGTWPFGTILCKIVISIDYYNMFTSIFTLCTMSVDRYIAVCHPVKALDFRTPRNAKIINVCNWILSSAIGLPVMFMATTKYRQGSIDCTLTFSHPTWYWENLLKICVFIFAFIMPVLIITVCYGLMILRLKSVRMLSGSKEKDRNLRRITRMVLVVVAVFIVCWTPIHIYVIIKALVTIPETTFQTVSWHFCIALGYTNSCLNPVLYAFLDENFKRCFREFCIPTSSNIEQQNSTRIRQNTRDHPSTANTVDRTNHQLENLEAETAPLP
Excerpt: as §4

[5] = target: benzodiazepines receptors; test: Binding to other brain receptors: benzodiazepines; conditions: negligible affinity
Excerpt: as §4

[6] = target: T4, serotonin 5-HT2 receptors (Homo sapiens, UniProt P28223); test: Binding to other brain receptors: serotonin 5-HT2; conditions: negligible affinity
T4 construct: from tissue
T4 sequence (P28223 whole entry): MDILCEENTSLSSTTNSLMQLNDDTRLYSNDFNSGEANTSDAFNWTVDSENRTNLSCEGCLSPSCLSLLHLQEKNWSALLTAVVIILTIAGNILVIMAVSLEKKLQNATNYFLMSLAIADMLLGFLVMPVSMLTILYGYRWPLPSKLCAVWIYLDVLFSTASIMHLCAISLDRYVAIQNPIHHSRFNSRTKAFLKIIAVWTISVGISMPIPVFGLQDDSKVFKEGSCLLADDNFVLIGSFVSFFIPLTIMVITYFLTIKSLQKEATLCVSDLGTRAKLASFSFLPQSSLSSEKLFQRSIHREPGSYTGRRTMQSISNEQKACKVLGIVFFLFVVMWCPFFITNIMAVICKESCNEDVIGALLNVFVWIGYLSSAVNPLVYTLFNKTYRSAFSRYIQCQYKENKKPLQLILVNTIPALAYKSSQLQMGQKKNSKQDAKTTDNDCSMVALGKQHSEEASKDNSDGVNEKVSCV
Excerpt: as §4

[7] = system: isolated guinea pig ileum, contractions induced by histamine; test: Antagonist action on contractions induced by histamine, isolated guinea pig ileum; conditions: histamine 1×10^-5 M; contact time one minute; 37° C.; read-out: Antagonist to different agents (IC50), Histam.
Procedure: as §1
as §2, with “Atropine, diphenhydramine and papaverine were emplohyed as reference products.” left out
as §3

[8] = target: serotonin 5-HT1 receptors; test: Binding to other brain receptors: serotonin 5-HT1; conditions: negligible affinity
Excerpt: as §4

adrenoreceptors beta2 = target: T5, adrenoreceptors beta2 (Homo sapiens, UniProt P07550); test: Binding to other brain receptors: adrenoreceptor beta2; conditions: negligible affinity
T5 construct: from tissue
T5 sequence (P07550 whole entry): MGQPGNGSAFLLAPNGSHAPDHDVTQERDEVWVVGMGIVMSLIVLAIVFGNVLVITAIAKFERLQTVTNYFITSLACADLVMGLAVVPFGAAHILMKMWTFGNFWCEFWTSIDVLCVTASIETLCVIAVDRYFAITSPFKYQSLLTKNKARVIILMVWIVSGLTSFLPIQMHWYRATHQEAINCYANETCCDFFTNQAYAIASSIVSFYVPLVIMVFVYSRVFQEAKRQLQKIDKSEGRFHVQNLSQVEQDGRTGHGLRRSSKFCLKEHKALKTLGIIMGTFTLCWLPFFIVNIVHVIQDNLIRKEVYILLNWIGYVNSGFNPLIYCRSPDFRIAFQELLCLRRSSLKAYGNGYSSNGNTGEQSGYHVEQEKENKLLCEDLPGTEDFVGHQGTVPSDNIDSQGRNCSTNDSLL
Excerpt: as §4

adrenoreceptors alpha1 = test: Binding to other brain receptors: adrenoreceptor alpha1; conditions: negligible affinity
Excerpt: as §4

opiate receptors kappa = target: T6, opiate receptors kappa (Homo sapiens, UniProt P41145); test: Binding to other brain receptors: opiate kappa; conditions: negligible affinity
T6 construct: from tissue
T6 sequence (P41145 whole entry): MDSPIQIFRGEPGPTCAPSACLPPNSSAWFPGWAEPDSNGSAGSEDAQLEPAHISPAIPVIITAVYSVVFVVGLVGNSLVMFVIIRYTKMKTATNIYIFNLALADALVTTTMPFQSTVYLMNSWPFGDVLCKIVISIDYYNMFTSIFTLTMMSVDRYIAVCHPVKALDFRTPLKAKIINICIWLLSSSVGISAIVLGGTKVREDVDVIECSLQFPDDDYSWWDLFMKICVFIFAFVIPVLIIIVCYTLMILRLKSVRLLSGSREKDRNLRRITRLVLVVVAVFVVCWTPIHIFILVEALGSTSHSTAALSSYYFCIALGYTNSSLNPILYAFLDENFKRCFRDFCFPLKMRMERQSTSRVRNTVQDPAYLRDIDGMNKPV
Excerpt: as §4

adrenoreceptors alpha2 = test: Binding to other brain receptors: adrenoreceptor alpha2; conditions: negligible affinity
Excerpt: as §4

GABA receptors = test: Binding to other brain receptors: GABA; conditions: negligible affinity
Excerpt: as §4

[9] = mice, i.p. 30 minutes before carbachol 1 mg/kg s.c., read-out: Dose inhibiting carbachol-induced diarrhoea in 50% of the animals
[10] = mice, i.p. 30 minutes before carbachol 1 mg/kg s.c., read-out: Dose inhibiting carbachol-induced eye watering in 50% of the animals
[11] = mice, i.p. 30 minutes before carbachol 1 mg/kg s.c., read-out: Dose inhibiting carbachol-induced salivation in 50% of the animals
[12] = mice, i.p. 30 minutes before carbachol 1 mg/kg s.c.

| SMILES | Agonist action pD2 [1] | IC50 [2] | IC50 [4] | IC50 (dopamine receptors) | IC50 (Muscarinic receptor 1) | affinity for the muscarinic receptor (in words) (Muscarinic receptor 1) | IC50 (Muscarinic receptor 2) | IC50 (adrenoreceptors beta1) | IC50 (histamine receptors) | IC50 (opiate receptors mu) | IC50 [5] | IC50 [6] | IC50 [7] | IC50 [8] | IC50 (adrenoreceptors beta2) | ED50 [3, 9] | ED50 [3, 10] | ED (1 degree C) [3, 12] | IC50 (adrenoreceptors alpha1) | IC50 (opiate receptors kappa) | other results |
| --- | --- | --- | --- | --- | --- | --- | --- | --- | --- | --- | --- | --- | --- | --- | --- | --- | --- | --- | --- | --- | --- |
| COC(=O)C1=CCCN(C)C1 [Arecoline, arecoline, reference compound] | 6.68 |  |  |  |  |  |  |  |  |  |  |  |  |  |  |  |  |  |  |  |  |
| CN1[C@@H]2CC[C@H]1C[C@@H](OC(=O)C(CO)c1ccccc1)C2 (some centres unmarked) [Atropine, reference compound] |  | 0.0095 µM |  |  |  |  |  |  |  |  |  |  |  |  |  |  |  |  |  |  | ED50 ([3]; read-out: Dose inhibiting carbachol-induced diarrhoea in 50% of the animals): 0.04 mg/kg; ED50 ([3]; read-out: Dose inhibiting carbachol-induced eye watering in 50% of the animals): 0.05 mg/kg; ED50 ([3]; read-out: Dose inhibiting carbachol-induced salivation in 50% of the animals): 0.06 mg/kg |
| CCN(CC)c1ccc(S(=O)(=O)N2CCCCC2=O)cc1 [Example 2, 1-[4-(Diethylamino)benzenesulphonyl]-2-piperidinone] | < 5 | 0.93 µM | > 10 µM | 5 to 10 µM | 0.314 µM | noteworthy advantageous affinity for the muscarinic receptor, and mainly for the M1 type receptor | 4.6 µM | 5 to 10 µM | 5 to 10 µM | 5 to 10 µM | 5 to 10 µM | 5 to 10 µM | > 10 µM | 5 to 10 µM | 5 to 10 µM | 5 mg/kg | > 50 mg/kg | > 50 mg/kg | 5 to 10 µM | 5 to 10 µM | ED50 [3, 11]: > 50 mg/kg; IC50 (adrenoreceptors alpha2): 5 to 10 µM; IC50 (GABA receptors): 5 to 10 µM |
| O=C1CCCCN1S(=O)(=O)c1ccc(N2CCCCC2)cc1 [Example 4, 1-[4-(1-Piperidinyl)benzenesulphonyl] -2-piperidinone] | < 5 | 1.5 µM | > 10 µM | 5 to 10 µM | 0.128 µM | noteworthy advantageous affinity for the muscarinic receptor, and mainly for the M1 type receptor | 2.24 µM | 5 to 10 µM | 5 to 10 µM | 5 to 10 µM | 5 to 10 µM | 5 to 10 µM | > 10 µM | 5 to 10 µM | 5 to 10 µM | 6 mg/kg | > 50 mg/kg | > 50 mg/kg | 5 to 10 µM | 5 to 10 µM | ED50 [3, 11]: > 50 mg/kg; IC50 (adrenoreceptors alpha2): 5 to 10 µM; IC50 (GABA receptors): 5 to 10 µM |
| O=C1CCCCN1S(=O)(=O)c1ccc(N2CCCCCC2)cc1 [Example 5, 1-[4-(1-Hexahydroazepinyl)benzenesulphonyl]-2-piperidinone] | < 5 | 0.27 µM | > 10 µM | 5 to 10 µM | 0.049 µM | noteworthy advantageous affinity for the muscarinic receptor, and mainly for the M1 type receptor | 0.66 µM | 5 to 10 µM | 5 to 10 µM | 5 to 10 µM | 5 to 10 µM | 5 to 10 µM | > 10 µM | 5 to 10 µM | 5 to 10 µM | 2 mg/kg | > 50 mg/kg | 50 mg/kg | 5 to 10 µM | 5 to 10 µM | IC50 (adrenoreceptors alpha2): 5 to 10 µM; IC50 (GABA receptors): 5 to 10 µM |
| COc1ccc(Cc2nccc3cc(OC)c(OC)cc23)cc1OC [Papaverine, papaverine, reference compound] |  |  | 45 µM |  |  |  |  |  |  |  |  |  |  |  |  |  |  |  |  |  |  |

— patent US5041436A, “1-arylsulphonyl-2-piperidinone derivatives, process and intermediates for the preparation thereof, their application as antispasmodics and compositions containing them” (Roussel Uclaf, priority 1989, dated 1991)
